From patent publication US4618627A, “Catechol derivatives and pharmaceutical compositions thereof for inhibiting anaphylaxis (SRS-A)” (priority 1983, dated 1986)

Key:
[1] = test system: antigen-induced SRS-A release; assay: Passive peritoneal anaphylaxis (PPA) in rats: SRS-A release; assay type: in vivo, male Wistar rats; details: Rattus norvegicus, ip, 100 μg/kg i.p., 30 sec before antigen, DSCG value is mean of 3 rats (footnote 1)
Procedure: (A) Passive peritoneal anaphylaxis (PPA) in rats
The method was based on that of Orange et al^(1). Briefly, male Wistar rats weighing 275 to 325 g (Shizuoka Exp. Animal Agric, Coop. Assoc.) were sensitized by intraperitoneally (i.p.) injecting 5 ml of diluted (40-fold) mouse anti-DNP reaginic serum (PCA titer: 1280). After 4 hr, 5 ml of Tyrode solution containing 250 μg heparin and 2 mg DNP-BSA was injected i.p. Test drugs (100 μg/kg) were dissolved in 0.6 ml of saline and injected i.p. 30 sec before antigen administration. Five min. later, the rats were decapitated and the peritoneal fluid was collected by opening the peritoneal cavity into polycarbonate tubes in ice. The supernatant was separated for bioassay from the cellular residue by centrifugation at 2000 rpm for 5 min at 4° C.
Histamine and SRS-A were assayed using isolated guinea-pig ileum in the presence of 10^-7 M FPL-55712 and 10^-6 M mepyramine, respectively, in addition to 5×10^-7 M atropine. One unit of SRS-A refers to the concentration required to produce a contraction of the guinea-pig ileum equal in amplitude to that produced by 5 ng histamine base in that assay.

[2] = test system: antigen-induced histamine release; assay: Passive peritoneal anaphylaxis (PPA) in rats: histamine release; assay type: in vivo, male Wistar rats; details: 100 μg/kg i.p.; for inhibition at 0.1 mg/kg: Rattus norvegicus, ip, 30 sec before antigen, histamine, DSCG value is mean of 3 rats (footnote 1)
Procedure: (A) Passive peritoneal anaphylaxis (PPA) in rats The method was based on that of Orange et al^(1). […] After 4 hr, 5 ml of Tyrode solution containing 250 μg heparin and 2 mg DNP-BSA was injected i.p. Test drugs (100 μg/kg) were dissolved in 0.6 ml of saline and injected i.p. 30 sec before antigen administration. Five min. later, the rats were decapitated and the peritoneal fluid was collected by opening the peritoneal cavity into polycarbonate tubes in ice. The supernatant was separated for bioassay from the cellular residue by centrifugation at 2000 rpm for 5 min at 4° C. […] One unit of SRS-A refers to the concentration required to produce a contraction of the guinea-pig ileum equal in amplitude to that produced by 5 ng histamine base in that assay.

[3] = biological target: cyclooxygenase; assay: Assay of cyclooxygenase; assay type: biochemical; details: enzyme fraction from mastocytoma P-815 cells, [1-14C]-arachidonic acid, 37° C., 7 min, Probit method; for IC50: read-out: IC 50 Cyclooxygenase
Procedure: (§1) (B) Assay of 5-lipoxygenase and cyclooygenase
(§2) The method was based on that of Koshihara et al^(1). In the case of assay of 5-lipoxygenase activity, an enzyme fraction from mastocytoma P-815 cells (10^7 cells/ml) was incubated with 0.2 μCi [1-^14 C]-arachidonic acid (56.9 Ci/mol), 0.8 mM CaCl2, 2×10^-5 M indoemthacin and various concentrations of test drugs at 37° C. for 5 min. In the case of assay of cyclooxygenase activity, CaCl2 and indomethacin were omitted from the above incubation mixture and incubation was performed at 37° C. for 7 min. Both reactions were terminated by adjusting the pH of the mixture to 3.0 with HCl. After extraction of the products with 8 volume ethyl acetate, each extract was concentrated and applied to TLC plate. For the separation of HETEs and prostaglandins, thin-layer chromatography was carried out using the solvent system: petroleum ether/diethyl ether/acetic acid (50:50:1) and ethyl acetate/2,2,4-trimethylpentane/acetic acid/water (11:5:2:10, upper phase), respectively. Radioactive spots were detected by autoradiography and scraped off and counted using a liquid scintillation spectrometer. The activities of 5-lipoxygenase and cyclooxygenase were expressed as the sum of radioactivities due to 5-HETE and 5,12-diHETE and due to PGD2, PGE2 and PGF2α, respectively. The IC 50 values were calculated by Probit method.

[4] = biological target: T1, 5-lipoxygenase (Mus musculus, UniProt P48999); assay: Assay of 5-lipoxygenase; assay type: biochemical; details: enzyme fraction from mastocytoma P-815 cells, [1-14C]-arachidonic acid, 37° C., 5 min; Probit method; read-out: IC 50 5-Lipoxygenase
T1 construct: endogenous in cells
T1 sequence (P48999 1-674): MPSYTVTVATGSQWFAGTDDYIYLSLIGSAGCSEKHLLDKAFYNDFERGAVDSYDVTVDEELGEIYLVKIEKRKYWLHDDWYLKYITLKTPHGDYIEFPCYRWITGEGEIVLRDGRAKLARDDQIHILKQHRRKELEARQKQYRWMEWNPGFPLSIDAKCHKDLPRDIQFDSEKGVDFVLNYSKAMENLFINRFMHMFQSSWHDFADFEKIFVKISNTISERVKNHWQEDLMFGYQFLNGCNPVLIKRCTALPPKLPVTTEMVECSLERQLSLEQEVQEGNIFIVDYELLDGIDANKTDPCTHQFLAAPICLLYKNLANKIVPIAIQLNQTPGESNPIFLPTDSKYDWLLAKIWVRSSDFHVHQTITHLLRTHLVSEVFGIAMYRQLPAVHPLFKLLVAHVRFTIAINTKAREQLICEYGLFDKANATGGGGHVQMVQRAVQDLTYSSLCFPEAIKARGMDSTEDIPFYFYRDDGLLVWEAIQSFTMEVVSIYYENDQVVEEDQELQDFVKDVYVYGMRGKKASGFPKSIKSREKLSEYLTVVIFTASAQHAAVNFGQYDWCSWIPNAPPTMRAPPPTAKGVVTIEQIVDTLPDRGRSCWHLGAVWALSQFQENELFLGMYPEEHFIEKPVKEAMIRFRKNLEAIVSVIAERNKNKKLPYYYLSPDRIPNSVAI
Procedure: as §1, §2

Row | IC 50 Cyclooxygenase [3] | IC50 [4] | IC50 [3] | Compound | inhibition at 0.1 mg/kg [1] | inhibition at 0.1 mg/kg [2] | inhibition of histamine release (selectivity versus SRS-A) ([2]; rat PPA)
1 | – | – | – | O=C(O)c1cc(=O)c2c(OCC(O)COc3cccc4oc(C(=O)O)cc(=O)c34)cccc2o1 [DSCG, disodium cromoglycate, reference compound] | 46.6% | 75.2% | inhibited the histamine release in a relatively selective manner
2 | En- hanced | 300 nM | – | CCCCC(C)C(O)CCc1ccc(O)c(O)c1 (centres unmarked) [Example 1, 1-(3,4-dihydroxyphenyl)-4-methyl-3-octanol] | 76.6% | 37.8% | –
3 | – | – | – | CCCCCCC(O)CCc1ccc(O)c(O)c1 (centres unmarked) [Example 2, 1-(3,4-dihydroxyphenyl)-3-nonanol] | 57.3% | 5.2% | –
4 | – | – | – | CCCCCCC(=O)CCc1ccc(O)c(O)c1 [Example 3, 1-(3,4-dihydroxyphenyl)-3-nonanone] | 53.9% | 22.6% | –
5 | – | 100 nM | > 10000 nM | CCCCCCCCC(O)CCc1ccc(O)c(O)c1 (centres unmarked) [Example 9, 1-(3,4-Dihydroxyphenyl)-3-undecanol] | 53.6% | 21.6% | –
6 | – | – | – | CCCCCC(C)C(O)CCc1ccc(O)c(O)c1 (centres unmarked) [Example 11, 1-(3,4-Dihydroxyphenyl)-4-methyl-3-nonanol] | 66.6% | 17.6% | –
7 | – | – | – | CCCCCCCCCC(=O)Cc1ccc(O)c(O)c1 [Example 14, 1-(3,4-dihydroxyphenyl)-2-undecanone] | 58.9% | 32.7% | –
8 | – | – | – | CCCCCCC(O)CCCc1ccc(O)c(O)c1 (centres unmarked) [Example 15, 1-(3,4-dihydroxyphenyl)-4-decanol] | 46.2% | 18.4% | –
9 | – | 230 nM | – | CC(=O)CCCCCCCc1ccc(O)c(O)c1 [Example 20, 9-(3,4-dihydroxyphenyl)-2-nonanone] | 62.8% | 17.9% | –
10 | – | 54 nM | > 10000 nM | OCCCCCCCCCCCc1ccc(O)c(O)c1 [Example 23, 11-(3,4-dihydroxyphenyl)-1-undecanol] | 69.6% | 10.7% | –
11 | – | – | – | OCCCCCCCCCc1ccc(O)c(O)c1 [Example 25A, 9-(3,4-Dihydroxyphenyl)-1-nonanol] | 43.9% | -8.3% | –
12 | – | – | – | CCCCCC(C)C(=O)C=Cc1ccc(O)c(O)c1 (centres unmarked) [Example 29, 1-(3,4-dihydroxyphenyl)-4-methyl-1-nonen-3-one] | 38.2% | -32.4% | –
